Laboratory results as given in patent publication US20060069132A1, “Azolecarboxamide herbicides” (priority 2004, published 2006).

Legend:
soybean = assay: Test C pre-/postemergence herbicide test; type: in vivo, Glycine max
Procedure, shortened: (§1)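 Seeds were planted and sprayed preemergence with test chemicals in a non-phytotoxic solvent mixture containing surfactant; postemergence treatments went onto plants 2 to 18 cm tall (1- to 4-leaf stage). After 12 to 14 days in a greenhouse, injury was rated visually against untreated controls on a 0–100 scale.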

johnsongrass = assay: Test C pre-/postemergence herbicide test; type: in vivo, Sorghum halepense
Procedure, shortened: as §1

rice = assay: Test B pre-/postemergence herbicide test; type: in vivo, Oryza sativa
Procedure, shortened: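 Plants compared with untreated controls 13–15 days post-treatment and given a visual 0–100 injury score. Applications: preemergence to seeds; postemergence at 1- to 4-leaf (2–18 cm); paddy species flooded, 2-leaf stage. Vehicle non-phytotoxic, surfactant included.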

Surinam grass = assay: Test C pre-/postemergence herbicide test; type: in vivo, Urochloa decumbens
Procedure, shortened: as §1

eastern black nightshade = assay: Test C pre-/postemergence herbicide test; type: in vivo, Solanum ptycanthum
Procedure, shortened: as §1

[1] = test system: common (oilseed) sunflower; assay: Test C pre-/postemergence herbicide test; type: in vivo, Helianthus annuus
Procedure, shortened: as §1

woolly cupgrass = assay: Test C pre-/postemergence herbicide test; type: in vivo, Eriochloa villosa
Procedure, shortened: as §1

goosegrass = assay: Test C pre-/postemergence herbicide test; type: in vivo, Eleusine indica
Procedure, shortened: as §1

[2] = 62 g ai/ha, preemergence, scale 0 to 100
[3] = 250 g ai/ha, scale 0-100, preemergence
[4] = 500 g ai/ha, scale 0 to 100 (0 no effect, 100 complete control), visual, 12 to 14 days, preemergence
[5] = Postemergence, 500 g ai/ha, scale 0 to 100
[6] = Postemergence, 250 g ai/ha, scale 0 to 100, 0 no effect, 100 complete control
[7] = postemergence, 125 g ai/ha, scale 0 to 100
[8] = postemergence, 62 g ai/ha, scale 0 to 100
[9] = 125 g ai/ha, scale 0 (no effect) to 100 (complete control), visual, 12 to 14 days, preemergence
[10] = Preemergence, 500 g ai/ha, scale 0 to 100, 0 no effect, 100 complete control

**Q.** Which results are given for `CCn1nc(C(C)(C)C)cc1C(=O)Nc1cccc(OC(F)F)c1` [Compound 332]?
**A.** Plant response rating, Soybean (soybean; [2]): 0; Plant response rating, Soybean (soybean; [3]): 0; Plant response rating, Soybean (soybean; [4]): 10; Soybean plant response rating (soybean; [5]): 90; Plant response rating, Soybean (soybean; [6]): 60; Plant response rating, Soybean (soybean; [7]): 50; Plant response rating, Soybean (soybean; [8]): 45; Plant response rating, Johnsongrass (johnsongrass; [2]): 0; Plant response rating, Johnsongrass (johnsongrass; [9]): 10; Plant response rating, Johnsongrass (johnsongrass; [3]): 50; Plant response rating, Johnsongrass (johnsongrass; [4]): 80; Johnsongrass plant response rating (johnsongrass; [5]): 5; Plant response rating, Johnsongrass (johnsongrass; [6]): 5; Plant response rating, Johnsongrass (johnsongrass; [7]): 5; Plant response rating, Johnsongrass (johnsongrass; [8]): 0; Plant response rating (0 to 100 scale), Rice (rice; 125 g ai/ha, 0 is no effect, 100 is complete control, preemergence): 20; Plant response rating, Rice (rice; 500 g ai/ha, visual rating, 0 = no effect, 100 = complete control, preemergence): 40; Plant response rating, Surinam Grass (Surinam grass; [2]): 5; Plant response rating, Surinam Grass (Surinam grass; [3]): 10; Plant response rating, Surinam Grass (Surinam grass; [4]): 15; Surinam Grass plant response rating (Surinam grass; [5]): 30; Plant response rating, Surinam Grass (Surinam grass; [6]): 10; Plant response rating, Surinam Grass (Surinam grass; [7]): 5; Plant response rating, Surinam Grass (Surinam grass; [8]): 5; Plant response rating, Nightshade (eastern black nightshade; [2]): 20; Plant response rating, Nightshade (eastern black nightshade; [9]): 90; Plant response rating, Nightshade (eastern black nightshade; [3]): 95; Plant response rating, Nightshade (eastern black nightshade; [4]): 100; Plant response rating, Sunflower [1, 2]: 0; Plant response rating, Sunflower [1, 3]: 0; Plant response rating, Sunflower [1, 4]: 0; Plant response rating, Cupgrass, Woolly (woolly cupgrass; [2]): 0; Plant response rating, Cupgrass, Woolly (woolly cupgrass; [9]): 0; Plant response rating, Cupgrass, Woolly (woolly cupgrass; [3]): 5; Plant response rating, Cupgrass, Woolly (woolly cupgrass; [4]): 10; Cupgrass, Woolly plant response rating (woolly cupgrass; [5]): 10; Plant response rating, Cupgrass, Woolly (woolly cupgrass; [6]): 10; Plant response rating, Cupgrass, Woolly (woolly cupgrass; [7]): 5; Plant response rating, Cupgrass, Woolly (woolly cupgrass; [8]): 5; Plant response rating, Goosegrass (goosegrass; [2]): 80; Plant response rating, Goosegrass (goosegrass; [9]): 85; Plant response rating, Goosegrass (goosegrass; [3]): 100; Plant response rating, Goosegrass (goosegrass; [4]): 100; Goosegrass plant response rating (goosegrass; [5]): 60; Plant response rating, Goosegrass (goosegrass; [6]): 15; Plant response rating, Goosegrass (goosegrass; [7]): 15; Plant response rating, Goosegrass (goosegrass; [8]): 10

**Q.** With `CCc1nn(C(C)(C)C)cc1C(=O)Nc1cccc(C(=O)N(CC)CC)c1` [Compound 182, N-[3-[(diethylamino)carbonyl]phenyl]-1-(1,1-dimethylethyl)-3-ethyl-1H-pyrazole-4-carboxamide] as the compound, how does the plant injury at 62 g/ha (soybean; Glycine max, pre-emergence, 62 g ai/ha, preemergence, scale 0 to 100, read-out: Plant response rating, Soybean) read?
**A.** 0%

**Q.** What about the plant injury at 125 g/ha (soybean; Glycine max, pre-emergence, 125 g ai/ha, scale 0 (no effect) to 100 (complete control), visual, 12 to 14 days, read-out: Plant response rating, Soybean) of the same compound?
**A.** 0%

**Q.** And the “Soybean plant response rating” value (soybean; [10])?
**A.** 15

**Q.** What about the “Johnsongrass plant response rating” value (johnsongrass; [10]) of the same compound?
**A.** 75

**Q.** What about the pest or weed control at 62 g/ha (johnsongrass; Sorghum halepense, pre-emergence, 62 g ai/ha, preemergence, scale 0 to 100, read-out: Plant response rating, Johnsongrass) of the same compound?
**A.** 0%

**Q.** What about the pest or weed control at 125 g/ha (johnsongrass; Sorghum halepense, pre-emergence, 125 g ai/ha, scale 0 (no effect) to 100 (complete control), visual, 12 to 14 days, read-out: Plant response rating, Johnsongrass) of the same compound?
**A.** 35%

**Q.** And the plant injury at 125 g/ha (rice; Oryza sativa, pre-emergence, 336 h, 125 g ai/ha, 0 = no effect, 100 = complete control, read-out: Rice plant response rating (0 to 100 scale))?
**A.** 0%

**Q.** What about the plant injury at 500 g/ha (rice; Oryza sativa, pre-emergence, 336 h, 500 g ai/ha, visual rating 0-100, 0 no effect, 100 complete control, read-out: Plant response rating, Rice) of the same compound?
**A.** 50%

**Q.** What about the “Surinam Grass plant response rating” value (Surinam grass; [10]) of the same compound?
**A.** 85

**Q.** What about the pest or weed control at 62 g/ha (Surinam grass; Urochloa decumbens, pre-emergence, 312 h, 62 g ai/ha, preemergence, scale 0 to 100, read-out: Plant response rating, Surinam Grass) of the same compound?
**A.** 0%

**Q.** What about the pest or weed control at 125 g/ha (Surinam grass; Urochloa decumbens, pre-emergence, 312 h, 125 g ai/ha, scale 0 (no effect) to 100 (complete control), visual, 12 to 14 days, read-out: Plant response rating, Surinam Grass) of the same compound?
**A.** 20%

**Q.** What about the “Nightshade plant response rating” value (eastern black nightshade; [10]) of the same compound?
**A.** 95

**Q.** And the pest or weed control at 62 g/ha (eastern black nightshade; pre-emergence, 62 g ai/ha, preemergence, scale 0 to 100, read-out: Plant response rating, Nightshade)?
**A.** 70%

**Q.** What about the pest or weed control at 125 g/ha (eastern black nightshade; pre-emergence, 125 g ai/ha, scale 0 (no effect) to 100 (complete control), visual, 12 to 14 days, read-out: Plant response rating, Nightshade) of the same compound?
**A.** 80%

**Q.** What about the pest or weed control at 62 g/ha ([1]; Helianthus annuus, pre-emergence, 62 g ai/ha, preemergence, scale 0 to 100, read-out: Plant response rating, Sunflower) of the same compound?
**A.** 0%

**Q.** What about the pest or weed control at 125 g/ha ([1]; Helianthus annuus, pre-emergence, 125 g ai/ha, scale 0 (no effect) to 100 (complete control), visual, 12 to 14 days, read-out: Plant response rating, Sunflower) of the same compound?
**A.** 0%

**Q.** And the “Sunflower plant response rating” value [1, 10]?
**A.** 0

**Q.** And the pest or weed control at 62 g/ha (woolly cupgrass; Eriochloa villosa, pre-emergence, 312 h, 62 g ai/ha, preemergence, scale 0 to 100, read-out: Plant response rating, Cupgrass, Woolly)?
**A.** 0%

**Q.** What about the pest or weed control at 125 g/ha (woolly cupgrass; Eriochloa villosa, pre-emergence, 312 h, 125 g ai/ha, scale 0 (no effect) to 100 (complete control), visual, 12 to 14 days, read-out: Plant response rating, Cupgrass, Woolly) of the same compound?
**A.** 0%

**Q.** What about the pest or weed control at 250 g/ha (woolly cupgrass; Eriochloa villosa, pre-emergence, 312 h, 250 g ai/ha, scale 0 to 100 (0 no effect, 100 complete control), visual, 12 to 14 days, read-out: Plant response rating, Cupgrass, Woolly) of the same compound?
**A.** 0%

**Q.** What about the “Cupgrass, Woolly plant response rating” value (woolly cupgrass; [10]) of the same compound?
**A.** 0

**Q.** And the pest or weed control at 62 g/ha (goosegrass; Eleusine indica, pre-emergence, 312 h, 62 g ai/ha, preemergence, scale 0 to 100, read-out: Plant response rating, Goosegrass)?
**A.** 0%

**Q.** And the pest or weed control at 125 g/ha (goosegrass; Eleusine indica, pre-emergence, 312 h, 125 g ai/ha, scale 0 (no effect) to 100 (complete control), visual, 12 to 14 days, read-out: Plant response rating, Goosegrass)?
**A.** 25%

**Q.** And the “Goosegrass plant response rating” value (goosegrass; [10])?
**A.** 80
